These results are taken from ChEMBL document CHEMBL3044762, “Design, Synthesis and Evaluation of Trisubstituted Thiazoles Targeting Plasmodium Falciparum Cysteine Proteases” (Med Chem Res, 2005).

Data set [1] deals with Plasmodium falciparum. Briefly: Antimalarial activity against Plasmodium falciparum W2 after 72 hr by LDH assay. Type of data set: functional, organism-based. The conditions noted are these: W2, 72 h.
The next data set has as its target Falcipain-3 (Plasmodium falciparum, UniProt Q8IIL0). As to the kind of experiment: Inhibition of recombinant Plasmodium falciparum falcipain-3 using Z-Leu-Arg-AMC as substrate compound treated for 30 min before substrate addition by fluorescence assay.
Data set [2] relates to Plasmodium falciparum. Briefly: Antimalarial activity against Plasmodium falciparum D6 after 72 hr by LDH assay. The conditions noted are these: D6, 72 h. In kind it is functional, organism-based.
In a further data set the target is T1, Falcipain 2 (Plasmodium falciparum, UniProt Q9N6S8).
T1 sequence (Q9N6S8 whole entry): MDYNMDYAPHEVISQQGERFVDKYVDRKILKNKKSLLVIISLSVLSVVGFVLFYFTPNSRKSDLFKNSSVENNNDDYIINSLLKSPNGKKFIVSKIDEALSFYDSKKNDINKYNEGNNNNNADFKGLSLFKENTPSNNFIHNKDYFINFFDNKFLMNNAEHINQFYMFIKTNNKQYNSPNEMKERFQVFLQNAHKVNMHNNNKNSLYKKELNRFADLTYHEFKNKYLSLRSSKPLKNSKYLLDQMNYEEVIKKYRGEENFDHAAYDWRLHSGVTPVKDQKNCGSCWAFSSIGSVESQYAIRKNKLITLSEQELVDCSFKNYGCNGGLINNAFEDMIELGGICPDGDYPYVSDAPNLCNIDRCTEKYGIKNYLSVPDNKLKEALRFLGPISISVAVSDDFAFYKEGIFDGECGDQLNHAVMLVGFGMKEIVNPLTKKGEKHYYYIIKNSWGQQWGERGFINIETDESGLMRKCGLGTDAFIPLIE
Briefly: Inhibition of recombinant Plasmodium falciparum falcipain-2 using Z-Leu-Arg-AMC as substrate compound treated for 30 min before substrate addition by fluorescence assay.

In a further data set the test system is Leishmania donovani. As to the kind of experiment: Antileishmanial activity against Leishmania donovani promastigotes after 72 hr by alamar blue assay. Type of data set: functional, organism-based.
Data set [3] is described as follows: (§1) Cytotoxicity against Chlorocebus aethiops (African green monkey) Vero cells by Neutral Red assay. The settings on record: chlorocebus sabaeus, Vero cells; read-out: TD50 (the source's name). Type of data set: cell-based.
The test system of data set [4] is Vero. Described as §1. In kind it is cell-based. The settings on record: chlorocebus sabaeus, vero.
Data set [5] deals with Plasmodium falciparum. As to the kind of experiment: Antimalarial activity against Plasmodium falciparum W2 […] after 72 hr by LDH assay. In kind it is functional.
The test system of data set [6] is Plasmodium falciparum. Briefly: Antimalarial activity against Plasmodium falciparum D6 at EC50 after 72 hr by LDH assay. In kind it is functional. Also on record: concentration or dose not given beside the values.
For data set [7], the system named is Vero. Briefly: Cytotoxicity against Chlorocebus aethiops (African green monkey) Vero cells at TD50 by Neutral Red assay. Type of data set: cell-based. The settings on record: chlorocebus sabaeus.

Sequence of Falcipain-3 (Q8IIL0 whole entry, looked up): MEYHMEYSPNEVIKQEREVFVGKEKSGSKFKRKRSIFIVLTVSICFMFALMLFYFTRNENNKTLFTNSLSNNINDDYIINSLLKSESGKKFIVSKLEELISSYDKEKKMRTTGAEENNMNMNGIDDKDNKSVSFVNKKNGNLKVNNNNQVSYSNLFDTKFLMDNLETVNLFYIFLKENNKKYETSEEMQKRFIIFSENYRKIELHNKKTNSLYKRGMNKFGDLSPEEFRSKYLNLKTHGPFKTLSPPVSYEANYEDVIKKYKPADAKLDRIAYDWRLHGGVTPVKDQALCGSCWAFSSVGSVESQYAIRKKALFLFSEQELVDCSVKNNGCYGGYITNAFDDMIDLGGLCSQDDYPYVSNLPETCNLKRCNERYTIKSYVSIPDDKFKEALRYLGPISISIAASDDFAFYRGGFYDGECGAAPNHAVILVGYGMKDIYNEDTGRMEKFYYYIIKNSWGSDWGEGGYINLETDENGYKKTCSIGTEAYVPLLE

A word on the EC50: it is the concentration needed to bring the measured effect to its halfway point. As usually defined, the IC50 is the midpoint of a concentration-inhibition curve. For `O=C(/C=C/c1nc(CCc2ccccc2)c(CCCO)s1)CSCCCc1ccccc1`, the EC50 worked out at 13.8 µM with Plasmodium falciparum [1], 35.4 µM in the data set with Plasmodium falciparum [2] and 4.5 µM with Leishmania donovani. Also, the IC50 on Falcipain-3 is 29.4 µM; on Falcipain 2, under 6.6 µM. Also, the CC50 in [3] was over 51.1 µM.
In the case of `CC(=O)NCCCc1sc(CCC(=O)CSCCCc2ccccc2)nc1CCc1ccccc1`, the EC50 with Plasmodium falciparum [1] stood at 16.8 µM; in the data set on Plasmodium falciparum [2], 32.4 µM; with Leishmania donovani it was 39.3 µM. The IC50 at Falcipain-3 was over 50 µM; at Falcipain 2, over 33 µM. Also, the TD50 result with Vero [4] is recorded as “Non-toxic”.
For the molecule `CC(=O)OCc1nc(CCC(=O)CSCCCc2ccccc2)sc1CCc1ccccc1`, the EC50 in the data set with Plasmodium falciparum [1] was found to be 24.9 µM; with Plasmodium falciparum [2], 30.5 µM; with Leishmania donovani, 29.1 µM. For the same molecule, the IC50 on Falcipain-3 was over 50 µM; on Falcipain 2 it was over 33 µM. For the same molecule, in the data set on Vero [4], the TD50 entry is recorded as “Non-toxic”.
In the case of `O=CCCc1sc(CCC(=O)CSCCCc2ccccc2)nc1CCc1ccccc1`, the EC50 with Plasmodium falciparum [1] is over 51.1 µM; in the data set with Plasmodium falciparum [2], over 51.1 µM; in the data set with Leishmania donovani, 8.2 µM. The “inhibition (INH)” value amounted to 26% in the data set with Plasmodium falciparum [5] and 45% in the data set with Plasmodium falciparum [6]. Moreover, the IC50 on Falcipain-3 was over 50 µM; at Falcipain 2, 39.1 µM. In addition, the TD50 result in the data set with Vero [4] is given as “Non-toxic”.
In turn, `NC(=O)CCc1sc(CCC(=O)CSCCCc2ccccc2)nc1CCc1ccccc1` displayed an Activity in the data set on Vero [7] of 38%. Further, the EC50 in the data set with Plasmodium falciparum [1] was over 49.5 µM; in the data set with Plasmodium falciparum [2], over 49.5 µM; in the data set with Leishmania donovani, 41.6 µM. For the same molecule, the “inhibition (INH)” value came out at 43% with Plasmodium falciparum [5] and 42% with Plasmodium falciparum [6]. The IC50 on Falcipain-3 was over 50 µM; at Falcipain 2 it was over 33 µM. For the same molecule, the CC50 in data set [3] is over 49.5 µM.
With `CCOC(=O)CCc1sc(NC(=O)CSCCCc2ccccc2)nc1/C=C/c1ccccc1`, the EC50 was 20.2 µM with Plasmodium falciparum [1], 28.3 µM with Plasmodium falciparum [2] and 50.5 µM in the data set with Leishmania donovani. Moreover, the TD50 entry in the data set on Vero [4] is recorded as “Non-toxic”.
Regarding `NC(=O)CCc1sc(NC(=O)CSCCCc2ccccc2)nc1/C=C/c1ccccc1`, the values for the EC50 with Plasmodium falciparum [1], in the data set with Plasmodium falciparum [2] and with Leishmania donovani were over 51.1 µM, over 51.1 µM and 47.2 µM, respectively. Besides, the “inhibition (INH)” value worked out at 26% in the data set with Plasmodium falciparum [5] and 45% in the data set with Plasmodium falciparum [6]. Moreover, the IC50 stood at 55.2 µM at Falcipain-3 and 15.3 µM on Falcipain 2. In addition, the TD50 result in the data set with Vero [4] is listed as “Non-toxic”.
In the data set with Plasmodium falciparum [1], `O=C(CCc1nc(CO)c(CCc2ccccc2)s1)CSCCCc1ccccc1` yielded an EC50 of over 20 µM. In addition, the values for the IC50 at Falcipain-3 and at Falcipain 2 were over 50 µM and over 12.5 µM, respectively.
Turning to `O=C(CCc1nc(CCc2ccccc2)c(CCCO)s1)CSCCCc1ccccc1`, the EC50 in the data set with Plasmodium falciparum [1] was found to be 19.1 µM; in the data set on Plasmodium falciparum [2] it was 20.3 µM; in the data set on Leishmania donovani, 16.3 µM. The values for the IC50 on Falcipain-3 and at Falcipain 2 were over 50 µM and over 12.5 µM, respectively. Also, the CC50 in [3] is 40.6 µM.
As to `N=C(N)c1ccc(OCCCCCOc2ccc(C(=N)N)cc2)cc1` [PENTAMIDINE], the EC50 in the data set with Leishmania donovani came to 5 µM.
Turning to `CCN(CC)CCCC(C)Nc1ccnc2cc(Cl)ccc12` (stereo not drawn) [CHLOROQUINE], the EC50 in the data set on Plasmodium falciparum [1] was 0.359 µM; in the data set on Plasmodium falciparum [2], 0.059 µM.
Consider `C[C@@H]1[C@H](O)[C@@H](C)/C=C/C=C/C=C/C=C/C=C/C=C/C=C/[C@H](O[C@@H]2O[C@H](C)[C@@H](O)[C@H](N)[C@@H]2O)C[C@@H]2O[C@](O)(C[C@@H](O)C[C@@H](O)[C@H](O)CC[C@@H](O)C[C@@H](O)CC(=O)O[C@H]1C)C[C@H](O)[C@H]2C(=O)O` [AMPHOTERICIN B], for which the EC50 in the data set on Leishmania donovani was determined as 0.2 µM.
On to `Nc1nc(CCc2ccccc2)c(CCCO)s1`, for which the figures for the EC50 with Plasmodium falciparum [1], in the data set with Plasmodium falciparum [2] and in the data set with Leishmania donovani were over 90.7 µM, over 90.7 µM and over 152 µM, respectively. In addition, the “inhibition (INH)” value in the data set on Plasmodium falciparum [5] was 26%; with Plasmodium falciparum [6], 37%. In the data set on Vero [4], the TD50 result was “Non-toxic”.
Regarding `C[C@@H]1CC[C@H]2[C@@H](C)C(=O)O[C@@H]3O[C@@]4(C)CC[C@@H]1[C@]32OO4` [ARTEMISININ], the EC50 with Plasmodium falciparum [1] came out at 0.023 µM; in the data set on Plasmodium falciparum [2] it was 0.025 µM.
